# Measurements: ChEMBL document CHEMBL1629456, “ApoA-I mimetic peptides promote pre-β HDL formation in vivo causing remodeling of HDL and triglyceride accumulation at higher dose” (Bioorg Med Chem, 2010)
# *1 amine or outer side, *2 acyl side, *3 side chain or, on linkers, in order; H or OH if unused. Where a SMILES comes first, the peptide text is derived from it. [ ]: non-standard residue; d: D form. Gly(oct-7-en-1-yl) = C=CCCCCCC[C@H](N)C(=O)O; dGly(6-heptenyl) = C=CCCCCC[C@@H](N)C(=O)O; Ala(5-hexenyl) = C=CCCCCC[C@H](N)C(=O)O; dNle(6-vinyl) = C=CCCCC[C@@H](N)C(=O)O; Gly(octyl) = CCCCCCCC[C@H](N)C(=O)O; X1 = CCCCCCC[C@H](N[*:1])C(=O)[*:2]; X2 = C=CCCCC[C@H](N[*:1])C(=O)[*:2]
# Biological target: Phospholipid-transporting ATPase ABCA1 (Mus musculus, UniProt P41233)
# Sequence (P41233 whole entry): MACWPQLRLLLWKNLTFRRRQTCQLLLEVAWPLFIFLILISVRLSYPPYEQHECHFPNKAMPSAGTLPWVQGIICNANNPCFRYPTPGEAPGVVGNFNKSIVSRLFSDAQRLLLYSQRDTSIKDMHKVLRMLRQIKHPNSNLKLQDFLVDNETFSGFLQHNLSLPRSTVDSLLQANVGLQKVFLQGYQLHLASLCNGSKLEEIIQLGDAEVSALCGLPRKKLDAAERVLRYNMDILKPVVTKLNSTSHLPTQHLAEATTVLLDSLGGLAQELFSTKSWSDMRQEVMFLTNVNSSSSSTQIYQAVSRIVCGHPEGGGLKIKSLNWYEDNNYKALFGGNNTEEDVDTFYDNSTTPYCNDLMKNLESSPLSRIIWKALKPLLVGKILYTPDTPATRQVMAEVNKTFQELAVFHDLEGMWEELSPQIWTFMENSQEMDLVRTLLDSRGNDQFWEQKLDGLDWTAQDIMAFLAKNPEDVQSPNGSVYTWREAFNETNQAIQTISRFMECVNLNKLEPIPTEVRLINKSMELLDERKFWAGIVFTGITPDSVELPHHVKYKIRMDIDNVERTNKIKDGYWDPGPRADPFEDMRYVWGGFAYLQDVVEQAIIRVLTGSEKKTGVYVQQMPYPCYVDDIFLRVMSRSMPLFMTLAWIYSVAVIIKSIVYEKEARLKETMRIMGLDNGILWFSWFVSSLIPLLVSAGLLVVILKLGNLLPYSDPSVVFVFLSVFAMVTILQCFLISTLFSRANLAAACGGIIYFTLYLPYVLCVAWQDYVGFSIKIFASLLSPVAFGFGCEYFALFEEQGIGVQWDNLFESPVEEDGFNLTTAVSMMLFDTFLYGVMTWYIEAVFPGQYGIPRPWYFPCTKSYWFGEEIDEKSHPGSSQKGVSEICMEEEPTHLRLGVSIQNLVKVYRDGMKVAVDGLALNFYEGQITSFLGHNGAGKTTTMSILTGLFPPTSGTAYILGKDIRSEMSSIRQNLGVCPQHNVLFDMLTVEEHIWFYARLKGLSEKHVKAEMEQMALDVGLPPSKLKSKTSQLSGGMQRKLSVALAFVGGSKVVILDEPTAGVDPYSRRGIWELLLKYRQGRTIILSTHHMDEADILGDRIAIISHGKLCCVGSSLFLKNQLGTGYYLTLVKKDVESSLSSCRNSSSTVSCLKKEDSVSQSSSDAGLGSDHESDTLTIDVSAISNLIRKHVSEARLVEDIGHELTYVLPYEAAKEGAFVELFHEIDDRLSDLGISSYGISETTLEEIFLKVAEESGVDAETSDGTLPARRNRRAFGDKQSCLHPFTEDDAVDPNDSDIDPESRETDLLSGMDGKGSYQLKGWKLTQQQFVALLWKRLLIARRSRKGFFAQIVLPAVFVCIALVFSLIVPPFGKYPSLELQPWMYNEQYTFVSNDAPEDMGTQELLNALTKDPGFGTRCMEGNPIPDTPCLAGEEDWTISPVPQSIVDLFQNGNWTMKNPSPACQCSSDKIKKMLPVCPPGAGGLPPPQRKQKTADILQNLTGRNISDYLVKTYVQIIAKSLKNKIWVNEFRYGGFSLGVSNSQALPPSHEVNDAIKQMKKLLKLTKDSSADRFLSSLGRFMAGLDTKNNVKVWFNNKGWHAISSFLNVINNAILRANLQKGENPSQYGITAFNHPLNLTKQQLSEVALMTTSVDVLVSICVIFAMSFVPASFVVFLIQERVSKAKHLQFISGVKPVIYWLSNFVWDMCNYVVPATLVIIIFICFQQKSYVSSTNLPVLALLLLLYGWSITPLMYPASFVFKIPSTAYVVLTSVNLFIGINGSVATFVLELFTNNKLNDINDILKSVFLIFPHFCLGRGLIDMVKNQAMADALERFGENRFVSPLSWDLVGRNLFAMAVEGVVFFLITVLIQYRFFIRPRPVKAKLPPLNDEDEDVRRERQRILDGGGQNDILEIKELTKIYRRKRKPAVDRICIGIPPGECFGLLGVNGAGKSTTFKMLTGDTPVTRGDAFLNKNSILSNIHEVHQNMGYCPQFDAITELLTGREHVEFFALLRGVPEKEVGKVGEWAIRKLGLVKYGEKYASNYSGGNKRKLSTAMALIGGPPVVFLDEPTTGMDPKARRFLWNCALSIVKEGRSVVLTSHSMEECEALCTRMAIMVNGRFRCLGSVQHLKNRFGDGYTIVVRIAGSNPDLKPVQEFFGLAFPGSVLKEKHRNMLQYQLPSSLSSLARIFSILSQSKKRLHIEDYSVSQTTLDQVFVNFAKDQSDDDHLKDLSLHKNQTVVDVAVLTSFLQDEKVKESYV
# Assay: Induction of ABCA1-mediated [3H]cholesterol efflux in mouse RAW 264.7 macrophages after 24 hrs
row,EC50 [nM],SMILES
1,> 100000,C=CCCCCC[C@@H](NC(=O)[C@H](CCCCN)NC(=O)[C@H](CCC(N)=O)NC(=O)[C@H](CCCCN)NC(=O)[C@H](CC(C)C)NC(=O)[C@H](C)NC(=O)[C@H](CCC(=O)O)NC(=O)[C@H](CC(C)C)NC(=O)[C@H](CCC(=O)O)NC(=O)[C@H](CCC(=O)O)NC(=O)[C@H](CC(N)=O)NC(=O)[C@H](CC(C)C)NC(=O)[C@H](CCCCN)NC(=O)[C@H](CCC(=O)O)NC(=O)[C@H](CCCNC(=N)N)NC(=O)[C@H](Cc1ccccc1)NC(=O)[C@H](CCC(=O)O)NC(=O)[C@H](CC(=O)O)NC(=O)[C@H](CC(C)C)NC(=O)[C@@H](NC(=O)[C@@H]1CCCN1C(C)=O)C(C)C)C(=O)N[C@@H](CCCCN)C(N)=O
2,2400,C=CCCCCC[C@H](NC(=O)[C@H](CCC(=O)O)NC(=O)[C@H](CC(N)=O)NC(=O)[C@H](CC(C)C)NC(=O)[C@H](CCCCN)NC(=O)[C@H](CCC(=O)O)NC(=O)[C@H](CCCNC(=N)N)NC(=O)[C@H](Cc1ccccc1)NC(=O)[C@H](CCC(=O)O)NC(=O)[C@H](CC(=O)O)NC(=O)[C@H](CC(C)C)NC(=O)[C@@H](NC(=O)[C@@H]1CCCN1C(C)=O)C(C)C)C(=O)N[C@@H](CC(C)C)C(=O)N[C@@H](CCC(=O)O)C(=O)N[C@@H](C)C(=O)N[C@@H](CC(C)C)C(=O)N[C@@H](CCCCN)C(=O)N[C@@H](CCC(N)=O)C(=O)N[C@@H](CCCCN)C(=O)N[C@@H](CC(C)C)C(=O)N[C@@H](CCCCN)C(N)=O (Ac-PVLDEFREKLNE[Ala(5-hexenyl)]LEALKQKLK-NH2)
3,900,C=CCCCCC[C@H](NC(=O)[C@H](CCC(N)=O)NC(=O)[C@H](CCCCN)NC(=O)[C@H](CC(C)C)NC(=O)[C@H](C)NC(=O)[C@H](CCC(=O)O)NC(=O)[C@H](CC(C)C)NC(=O)[C@H](CCCCCC=C)NC(=O)[C@H](CCC(=O)O)NC(=O)[C@H](CC(N)=O)NC(=O)[C@H](CC(C)C)NC(=O)[C@H](CCCCN)NC(=O)[C@H](CCC(=O)O)NC(=O)[C@H](CCCN=C(N)N)NC(=O)[C@H](Cc1ccccc1)NC(=O)[C@H](CCC(=O)O)NC(=O)[C@H](CC(=O)O)NC(=O)[C@H](CC(C)C)NC(=O)[C@@H](NC(=O)[C@@H]1CCCN1C(C)=O)C(C)C)C(=O)N[C@@H](CC(C)C)C(=O)N[C@@H](CCCCN)C(N)=O (Ac-PVLDEFREKLNE[Ala(5-hexenyl)]LEALKQ[Ala(5-hexenyl)]LK-NH2)
4,700,C=CCCCCCC[C@H](NC(=O)[C@H](CCC(=O)O)NC(=O)[C@H](CC(N)=O)NC(=O)[C@H](CC(C)C)NC(=O)[C@H](CCCCN)NC(=O)[C@H](CCC(=O)O)NC(=O)[C@H](CCCN=C(N)N)NC(=O)[C@H](Cc1ccccc1)NC(=O)[C@H](CCC(=O)O)NC(=O)[C@H](CC(=O)O)NC(=O)[C@H](CC(C)C)NC(=O)[C@@H](NC(=O)[C@@H]1CCCN1C(C)=O)C(C)C)C(=O)N[C@@H](CC(C)C)C(=O)N[C@@H](CCC(=O)O)C(=O)N[C@@H](C)C(=O)N[C@@H](CC(C)C)C(=O)N[C@@H](CCCCN)C(=O)N[C@@H](CCC(N)=O)C(=O)N[C@@H](CCCCN)C(=O)N[C@@H](CC(C)C)C(=O)N[C@@H](CCCCN)C(N)=O (Ac-PVLDEFREKLNE[Gly(oct-7-en-1-yl)]LEALKQKLK-NH2)
5,700,CCCCCCC[C@H](NC(=O)[C@H](CCC(=O)O)NC(=O)[C@H](CC(N)=O)NC(=O)[C@H](CC(C)C)NC(=O)[C@H](CCCCN)NC(=O)[C@H](CCC(=O)O)NC(=O)[C@H](CCCN=C(N)N)NC(=O)[C@H](Cc1ccccc1)NC(=O)[C@H](CCC(=O)O)NC(=O)[C@H](CC(=O)O)NC(=O)[C@H](CC(C)C)NC(=O)[C@@H](NC(=O)[C@@H]1CCCN1C(C)=O)C(C)C)C(=O)N[C@@H](CC(C)C)C(=O)N[C@@H](CCC(=O)O)C(=O)N[C@@H](C)C(=O)N[C@@H](CC(C)C)C(=O)N[C@@H](CCCCN)C(=O)N[C@@H](CCC(N)=O)C(=O)N[C@@H](CCCCN)C(=O)N[C@@H](CC(C)C)C(=O)N[C@@H](CCCCN)C(N)=O (Ac-PVLDEFREKLNE[X1]LEALKQKLK-NH2)
6,1400,C=CCCCC[C@H](NC(=O)[C@H](CCC(=O)O)NC(=O)[C@H](CC(N)=O)NC(=O)[C@H](CC(C)C)NC(=O)[C@H](CCCCN)NC(=O)[C@H](CCC(=O)O)NC(=O)[C@H](CCCNC(=N)N)NC(=O)[C@H](Cc1ccccc1)NC(=O)[C@H](CCC(=O)O)NC(=O)[C@H](CC(=O)O)NC(=O)[C@H](CC(C)C)NC(=O)[C@@H](NC(=O)[C@@H]1CCCN1C(C)=O)C(C)C)C(=O)N[C@@H](CC(C)C)C(=O)N[C@@H](CCC(=O)O)C(=O)N[C@@H](C)C(=O)N[C@@H](CC(C)C)C(=O)N[C@@H](CCCCN)C(=O)N[C@@H](CCC(N)=O)C(=O)N[C@@H](CCCCN)C(=O)N[C@@H](CC(C)C)C(=O)N[C@@H](CCCCN)C(N)=O (Ac-PVLDEFREKLNE[X2]LEALKQKLK-NH2)
7,9500,C=CCCCCC[C@@H](NC(=O)[C@H](CCC(=O)O)NC(=O)[C@H](CC(N)=O)NC(=O)[C@H](CC(C)C)NC(=O)[C@H](CCCCN)NC(=O)[C@H](CCC(=O)O)NC(=O)[C@H](CCCN=C(N)N)NC(=O)[C@H](Cc1ccccc1)NC(=O)[C@H](CCC(=O)O)NC(=O)[C@H](CC(=O)O)NC(=O)[C@H](CC(C)C)NC(=O)[C@@H](NC(=O)[C@@H]1CCCN1C(C)=O)C(C)C)C(=O)N[C@@H](CC(C)C)C(=O)N[C@@H](CCC(=O)O)C(=O)N[C@@H](C)C(=O)N[C@@H](CC(C)C)C(=O)N[C@@H](CCCCN)C(=O)N[C@@H](CCC(N)=O)C(=O)N[C@@H](CCCCN)C(=O)N[C@@H](CC(C)C)C(=O)N[C@@H](CCCCN)C(N)=O (Ac-PVLDEFREKLNE[dGly(6-heptenyl)]LEALKQKLK-NH2)
8,31000,C=CCCCC[C@@H](NC(=O)[C@H](CCC(=O)O)NC(=O)[C@H](CC(N)=O)NC(=O)[C@H](CC(C)C)NC(=O)[C@H](CCCCN)NC(=O)[C@H](CCC(=O)O)NC(=O)[C@H](CCCN=C(N)N)NC(=O)[C@H](Cc1ccccc1)NC(=O)[C@H](CCC(=O)O)NC(=O)[C@H](CC(=O)O)NC(=O)[C@H](CC(C)C)NC(=O)[C@@H](NC(=O)[C@@H]1CCCN1C(C)=O)C(C)C)C(=O)N[C@@H](CC(C)C)C(=O)N[C@@H](CCC(=O)O)C(=O)N[C@@H](C)C(=O)N[C@@H](CC(C)C)C(=O)N[C@@H](CCCCN)C(=O)N[C@@H](CCC(N)=O)C(=O)N[C@@H](CCCCN)C(=O)N[C@@H](CC(C)C)C(=O)N[C@@H](CCCCN)C(N)=O (Ac-PVLDEFREKLNE[dNle(6-vinyl)]LEALKQKLK-NH2)
9,1800,C=CCCCCC[C@H](NC(=O)[C@H](CCC(N)=O)NC(=O)[C@H](CCCCN)NC(=O)[C@H](CC(C)C)NC(=O)[C@H](C)NC(=O)[C@H](CCC(=O)O)NC(=O)[C@H](CC(C)C)NC(=O)[C@H](CCCCCC=C)NC(=O)[C@H](CCC(=O)O)NC(=O)[C@H](CC(N)=O)NC(=O)[C@H](CC(C)C)NC(=O)[C@H](CCCCN)NC(=O)[C@H](CCC(=O)O)NC(=O)[C@H](CCCNC(=N)N)NC(=O)[C@H](CCCCCC=C)NC(=O)[C@H](CCC(=O)O)NC(=O)[C@H](CC(=O)O)NC(=O)[C@H](CC(C)C)NC(=O)[C@@H](NC(=O)[C@@H]1CCCN1C(C)=O)C(C)C)C(=O)N[C@@H](CC(C)C)C(=O)N[C@@H](CCCCN)C(N)=O (Ac-PVLDE[Ala(5-hexenyl)]REKLNE[Ala(5-hexenyl)]LEALKQ[Ala(5-hexenyl)]LK-NH2)
10,400,C=CCCCCCC[C@H](NC(=O)[C@H](CCC(=O)O)NC(=O)[C@H](CC(N)=O)NC(=O)[C@H](CC(C)C)NC(=O)[C@H](CCCCN)NC(=O)[C@H](CCC(=O)O)NC(=O)[C@H](CCCN=C(N)N)NC(=O)[C@H](CCCCCCC=C)NC(=O)[C@H](CCC(=O)O)NC(=O)[C@H](CC(=O)O)NC(=O)[C@H](CC(C)C)NC(=O)[C@@H](NC(=O)[C@@H]1CCCN1C(C)=O)C(C)C)C(=O)N[C@@H](CC(C)C)C(=O)N[C@@H](CCC(=O)O)C(=O)N[C@@H](C)C(=O)N[C@@H](CC(C)C)C(=O)N[C@@H](CCCCN)C(=O)N[C@@H](CCC(N)=O)C(=O)N[C@@H](CCCCN)C(=O)N[C@@H](CC(C)C)C(=O)N[C@@H](CCCCN)C(N)=O (Ac-PVLDE[Gly(oct-7-en-1-yl)]REKLNE[Gly(oct-7-en-1-yl)]LEALKQKLK-NH2)
11,600,CCCCCCCC[C@H](NC(=O)[C@H](CCC(=O)O)NC(=O)[C@H](CC(N)=O)NC(=O)[C@H](CC(C)C)NC(=O)[C@H](CCCCN)NC(=O)[C@H](CCC(=O)O)NC(=O)[C@H](CCCNC(=N)N)NC(=O)[C@H](CCCCCCCC)NC(=O)[C@H](CCC(=O)O)NC(=O)[C@H](CC(=O)O)NC(=O)[C@H](CC(C)C)NC(=O)[C@@H](NC(=O)[C@@H]1CCCN1C(C)=O)C(C)C)C(=O)N[C@@H](CC(C)C)C(=O)N[C@@H](CCC(=O)O)C(=O)N[C@@H](C)C(=O)N[C@@H](CC(C)C)C(=O)N[C@@H](CCCCN)C(=O)N[C@@H](CCC(N)=O)C(=O)N[C@@H](CCCCN)C(=O)N[C@@H](CC(C)C)C(=O)N[C@@H](CCCCN)C(N)=O (Ac-PVLDE[Gly(octyl)]REKLNE[Gly(octyl)]LEALKQKLK-NH2)
12,400,C=CCCCCC[C@H](NC(=O)[C@H](CCC(=O)O)NC(=O)[C@H](CC(N)=O)NC(=O)[C@H](CC(C)C)NC(=O)[C@H](CCCCN)NC(=O)[C@H](CCC(=O)O)NC(=O)[C@H](CCCN=C(N)N)NC(=O)[C@H](Cc1ccccc1)NC(=O)[C@H](CCC(=O)O)NC(=O)[C@H](CC(=O)O)NC(=O)[C@H](CC(C)C)NC(=O)[C@H](CCCCCC=C)NC(=O)[C@@H]1CCCN1C(C)=O)C(=O)N[C@@H](CC(C)C)C(=O)N[C@@H](CCC(=O)O)C(=O)N[C@@H](C)C(=O)N[C@@H](CC(C)C)C(=O)N[C@@H](CCCCN)C(=O)N[C@@H](CCC(N)=O)C(=O)N[C@@H](CCCCN)C(=O)N[C@@H](CC(C)C)C(=O)N[C@@H](CCCCN)C(N)=O (Ac-P[Ala(5-hexenyl)]LDEFREKLNE[Ala(5-hexenyl)]LEALKQKLK-NH2)
13,5000,C=CCCCCC[C@H](NC(=O)[C@H](CCC(N)=O)NC(=O)[C@H](CCCCN)NC(=O)[C@H](CC(C)C)NC(=O)[C@H](C)NC(=O)[C@H](CCC(=O)O)NC(=O)[C@H](CC(C)C)NC(=O)[C@H](CCCCCC=C)NC(=O)[C@H](CCC(=O)O)NC(=O)[C@H](CC(N)=O)NC(=O)[C@H](CC(C)C)NC(=O)[C@H](CCCCN)NC(=O)[C@H](CCC(=O)O)NC(=O)[C@H](CCCN=C(N)N)NC(=O)[C@H](Cc1ccccc1)NC(=O)[C@H](CCC(=O)O)NC(=O)[C@H](CC(=O)O)NC(=O)[C@H](CC(C)C)NC(=O)[C@H](CCCCCC=C)NC(=O)[C@@H]1CCCN1C(C)=O)C(=O)N[C@@H](CC(C)C)C(=O)N[C@@H](CCCCN)C(N)=O (Ac-P[Ala(5-hexenyl)]LDEFREKLNE[Ala(5-hexenyl)]LEALKQ[Ala(5-hexenyl)]LK-NH2)
